These results are taken from patent US20260242419A1, “A CYCLIC PEPTIDE FOR TRAPPING INTERLEUKIN-1 BETA” (Merck Sharp & Dohme LLC, priority 2023, published 2026).

Starred links: 1 amine or outer side, 2 acyl side, 3 side chain; linkers in the order of their positions; H or OH if unused. Non-standard residues stand in square brackets, D forms with d. Residues, ends and D or L forms follow the SMILES beside them. dPro(4R-(4-pyridylmethyl)) = O=C(O)[C@H]1C[C@@H](Cc2ccncc2)CN1; Trp(βS-Me,4-F) = C[C@@H](c1c[nH]c2cccc(F)c12)[C@H](N)C(=O)O; 3Aminoazetidine3carboxyl = O=C(C1(N[*:1])CN([*:3])C1)[*:2]; Bip(4'-COOH) = N[C@@H](Cc1ccc(-c2ccc(C(=O)O)cc2)cc1)C(=O)O; X21 = O=C(O)c1ccc(-c2ccc(C[C@H](N[*:1])C(=O)[*:2])cn2)cc1; dPro(4R-Bzl(4-F)) = O=C(O)[C@H]1C[C@@H](Cc2ccc(F)cc2)CN1; X14 = O=C([C@H]1[C@@H](Cc2ccccc2)CCN1[*:1])[*:2]; Ala(morpholin-4-yl) = N[C@@H](CN1CCOCC1)C(=O)O; Ala(pyrimidin-5-yl) = N[C@@H](Cc1cncnc1)C(=O)O; Phe(4-COOH) = N[C@@H](Cc1ccc(C(=O)O)cc1)C(=O)O; Pro(cis-4-F) = O=C(O)[C@@H]1C[C@H](F)CN1; 4Pal = N[C@@H](Cc1ccncc1)C(=O)O; d(αMeS) = C[C@@](N)(CO)C(=O)O; αMeS = C[C@](N)(CO)C(=O)O; Dab = NCC[C@H](N)C(=O)O; Aib = CC(C)(N)C(=O)O

T1 sequence (P01584 117-269): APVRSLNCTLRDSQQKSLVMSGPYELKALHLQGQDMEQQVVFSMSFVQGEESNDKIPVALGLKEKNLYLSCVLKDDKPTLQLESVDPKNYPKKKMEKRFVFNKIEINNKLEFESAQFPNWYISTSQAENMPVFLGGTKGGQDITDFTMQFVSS

The first test addresses T1, IL-1β (Homo sapiens, UniProt P01584).
T1 construct: purchased BioLegend 579404
The test is described as follows: IL-6 assay in MRC5 cells: inhibition of IL-1β induced IL-6 secretion (AlphaLISA). It is filed as cell-based.
Conditions: not given
As to the method:
Procedure for IL-6 Assay in MRC5 Cells
The inhibition of IL-1β induced IL-6 secretion was evaluated in MRC5 cells. Recombinant human IL-1β (BioLegend 579404) at 2λ EC80 concentration was prepared in seeding medium. EMEM (ATCC 30-2003) with 0.025% BSA (Sigma A9576), 1×penicillin/streptomycin (Gibco 15070-063), 1×NEAA (Gibco 11140-050), 1×GlutaMax (Gibco 35050-061), and 1×sodium pyruvate (Gibco 11360-070), 20 μL of IL-1β was added to a 384-well collagen-coated plate (Corning 354664) and pre-incubated at ambient temperature for 1 hour with 200 nL of compound dispensed using an ECHO 555 liquid handler. Human lung fibroblast MRC5 cells (ATCC CCL-171) were added at a density of 3000 cells/20 μL per well. The cells were prepared by passaging three times in growth medium, EMEM (ATCC 30-2003) with 10% fetal bovine serum (Gibco 16140-071), 1×penicillin/streptomycin (Gibco 15070-063), 1×NEAA (Gibco 11140-050), 1×GlutaMax (Gibco 35050-061), and 1×sodium pyruvate (Gibco 11360-070) in collagen-coated T175 flasks (Greiner 661950) and harvested in seeding medium after 5 minutes of 0.25% trypsin-EDTA (Gibco 25200-056) digestion. The 384-well collagen-coated plate, containing a final volume of 40 μL, was incubated at 37° C., 5% CO2 overnight. 5 μL of the conditioned medium was transferred to a 384-well AlphaLISA plate (PerkinElmer 6005350) for detection of IL-6 using the human AlphaLISA IL-6 kit (PerkinElmer AL223F) as per the manufacturer's protocol. 20 μL of the acceptor bead/biotinylated antibody mix was added to the 384-well AlphaLISA plate and incubated for 1 hour at ambient temperature. The donor bead mix was protected from light and 25 μL was added to the plate and incubated for 30 minutes at ambient temperature. The AlphaLISA plate was read on an EnVision multimode plate reader (Perkin Elmer model 2104) using the AlphaScreen setting (laser exc at 680 nm and emis at […]). Dose response curves and IC50 values were analyzed using a 4-parameter logistic equation in Spotfire software (Tibco, Palo Alto, CA).
On the technique in general: Alpha assays give light when donor and acceptor beads are brought close together.
By IC50 is commonly meant the concentration that inhibits the measured activity by half. With `C[C@@H](c1c[nH]c2cccc(F)c12)[C@@H]1NC(=O)[C@@H]2C[C@H](F)CN2C(=O)CNC(=O)[C@H](Cc2ccc(C(=O)O)cc2)NC(=O)[C@H](Cc2ccncc2)NC(=O)[C@H](Cc2ccc(-c3ccc(C(=O)O)cc3)cc2)NC(=O)[C@H]2C[C@@H](Cc3ccc(F)cc3)CN2C(=O)CNC(=O)[C@H](CCN)NC(=O)[C@H](CCC(N)=O)NC(=O)[C@H](Cc2cncnc2)NC(=O)C(C)(C)NC(=O)[C@H](Cc2c[nH]c3ccccc23)NC(=O)[C@H](CCC(=O)O)NC(=O)[C@](C)(CO)NC1=O` [Example 22] (cyclo([4Pal][Phe(4-COOH)]G[Pro(cis-4-F)][Trp(βS-Me,4-F)][αMeS]EW[Aib][Ala(pyrimidin-5-yl)]Q[Dab]G[dPro(4R-Bzl(4-F))][Bip(4'-COOH)])), the midpoint of inhibition, the IC50, lay at 27 pM.

The test is the same for the next values; noted with them: inhibition of IL-1β induced IL-6 secretion in MRC5 cells; read-out: MRC5 IC50.
For the molecule `C[C@@H](c1c[nH]c2cccc(F)c12)[C@@H]1NC(=O)[C@@H]2C[C@H](F)CN2C(=O)CNC(=O)[C@H](Cc2ccc(C(=O)O)cc2)NC(=O)[C@H](Cc2ccncc2)NC(=O)[C@H](Cc2ccc(-c3ccc(C(=O)O)cc3)cc2)NC(=O)[C@H]2C[C@@H](Cc3ccncc3)CN2C(=O)CNC(=O)[C@H](CCN)NC(=O)[C@H](CCC(N)=O)NC(=O)[C@H](Cc2cncnc2)NC(=O)C(C)(C)NC(=O)[C@H](Cc2c[nH]c3ccccc23)NC(=O)[C@H](CCC(=O)O)NC(=O)C(C)(C)NC1=O` [Example 14] (cyclo([Bip(4'-COOH)][4Pal][Phe(4-COOH)]G[Pro(cis-4-F)][Trp(βS-Me,4-F)][Aib]EW[Aib][Ala(pyrimidin-5-yl)]Q[Dab]G[dPro(4R-(4-pyridylmethyl))])), the IC50 stood at 35 pM. On the same count and under the same terms, the result for `C[C@@H](c1c[nH]c2cccc(F)c12)[C@@H]1NC(=O)[C@@H]2C[C@H](F)CN2C(=O)CNC(=O)[C@H](Cc2ccc(C(=O)O)cc2)NC(=O)[C@H](Cc2ccncc2)NC(=O)[C@H](Cc2ccc(-c3ccc(C(=O)O)cc3)cc2)NC(=O)[C@H]2C[C@@H](Cc3ccncc3)CN2C(=O)CNC(=O)[C@H](CCN)NC(=O)[C@H](CCC(N)=O)NC(=O)[C@H](Cc2ccncc2)NC(=O)C(C)(C)NC(=O)[C@H](Cc2c[nH]c3ccccc23)NC(=O)[C@H](CCC(=O)O)NC(=O)C(C)(C)NC1=O` [Example 15] (cyclo([Bip(4'-COOH)][4Pal][Phe(4-COOH)]G[Pro(cis-4-F)][Trp(βS-Me,4-F)][Aib]EW[Aib][4Pal]Q[Dab]G[dPro(4R-(4-pyridylmethyl))])) reads 35 pM; that for `C[C@@H](c1c[nH]c2cccc(F)c12)[C@@H]1NC(=O)[C@@H]2C[C@H](F)CN2C(=O)CNC(=O)[C@H](Cc2ccc(C(=O)O)cc2)NC(=O)[C@H](Cc2ccncc2)NC(=O)[C@H](Cc2ccc(-c3ccc(C(=O)O)cc3)cc2)NC(=O)[C@H]2C[C@@H](Cc3ccc(F)cc3)CN2C(=O)CNC(=O)[C@H](CCN)NC(=O)[C@H](CCC(N)=O)NC(=O)[C@H](Cc2cncnc2)NC(=O)C(C)(C)NC(=O)[C@H](Cc2c[nH]c3ccccc23)NC(=O)[C@H](CC(=O)O)NC(=O)C(C)(C)NC1=O` [Example 17] (cyclo([Bip(4'-COOH)][4Pal][Phe(4-COOH)]G[Pro(cis-4-F)][Trp(βS-Me,4-F)][Aib]DW[Aib][Ala(pyrimidin-5-yl)]Q[Dab]G[dPro(4R-Bzl(4-F))])), 29 pM. On the same count and under the same terms, the result for `C[C@@H](c1c[nH]c2cccc(F)c12)[C@@H]1NC(=O)[C@@H]2C[C@H](F)CN2C(=O)CNC(=O)[C@H](Cc2ccc(C(=O)O)cc2)NC(=O)[C@H](Cc2ccncc2)NC(=O)[C@H](Cc2ccc(-c3ccc(C(=O)O)cc3)cc2)NC(=O)[C@H]2C[C@@H](Cc3ccc(F)cc3)CN2C(=O)CNC(=O)[C@H](CCN)NC(=O)[C@H](CCC(N)=O)NC(=O)[C@H](Cc2cncnc2)NC(=O)[C@](C)(CO)NC(=O)[C@H](Cc2c[nH]c3ccccc23)NC(=O)[C@H](CCC(=O)O)NC(=O)C(C)(C)NC1=O` [Example 18] (cyclo([Bip(4'-COOH)][4Pal][Phe(4-COOH)]G[Pro(cis-4-F)][Trp(βS-Me,4-F)][Aib]EW[αMeS][Ala(pyrimidin-5-yl)]Q[Dab]G[dPro(4R-Bzl(4-F))])) reads 27 pM; that for `C[C@@H](c1c[nH]c2cccc(F)c12)[C@@H]1NC(=O)[C@@H]2C[C@H](F)CN2C(=O)CNC(=O)[C@H](Cc2ccc(C(=O)O)cc2)NC(=O)[C@H](Cc2ccncc2)NC(=O)[C@H](Cc2ccc(-c3ccc(C(=O)O)cc3)cc2)NC(=O)[C@H]2C[C@@H](Cc3ccc(F)cc3)CN2C(=O)CNC(=O)[C@H](CCN)NC(=O)[C@H](CCC(N)=O)NC(=O)[C@H](Cc2cncnc2)NC(=O)C(C)(C)NC(=O)[C@H](Cc2c[nH]c3ccccc23)NC(=O)[C@H](CCC(=O)O)NC(=O)[C@@](C)(CO)NC1=O` [Example 19] (cyclo([Bip(4'-COOH)][4Pal][Phe(4-COOH)]G[Pro(cis-4-F)][Trp(βS-Me,4-F)][d(αMeS)]EW[Aib][Ala(pyrimidin-5-yl)]Q[Dab]G[dPro(4R-Bzl(4-F))])), 21 pM; that for `C[C@@H](c1c[nH]c2cccc(F)c12)[C@@H]1NC(=O)[C@@H]2C[C@H](F)CN2C(=O)CNC(=O)[C@H](Cc2ccc(C(=O)O)cc2)NC(=O)[C@H](Cc2ccncc2)NC(=O)[C@H](Cc2ccc(-c3ccc(C(=O)O)cc3)cc2)NC(=O)[C@H]2C[C@@H](Cc3ccc(F)cc3)CN2C(=O)CNC(=O)[C@H](CCN)NC(=O)[C@H](CCC(N)=O)NC(=O)[C@H](Cc2cncnc2)NC(=O)C2(CNC2)NC(=O)[C@H](Cc2c[nH]c3ccccc23)NC(=O)[C@H](CCC(=O)O)NC(=O)C(C)(C)NC1=O` [Example 21] (cyclo([Bip(4'-COOH)][4Pal][Phe(4-COOH)]G[Pro(cis-4-F)][Trp(βS-Me,4-F)][Aib]EW[3Aminoazetidine3carboxyl][Ala(pyrimidin-5-yl)]Q[Dab]G[dPro(4R-Bzl(4-F))])), 40 pM. As to `C[C@@H](c1c[nH]c2cccc(F)c12)[C@@H]1NC(=O)[C@@H]2C[C@H](F)CN2C(=O)CNC(=O)[C@H](Cc2ccc(C(=O)O)cc2)NC(=O)[C@H](Cc2ccncc2)NC(=O)[C@H](Cc2ccc(-c3ccc(C(=O)O)cc3)cc2)NC(=O)[C@H]2C[C@@H](Cc3ccc(F)cc3)CN2C(=O)CNC(=O)[C@H](CCN)NC(=O)[C@H](CCC(N)=O)NC(=O)[C@H](Cc2cncnc2)NC(=O)[C@@](C)(CO)NC(=O)[C@H](Cc2c[nH]c3ccccc23)NC(=O)[C@H](CCC(=O)O)NC(=O)C(C)(C)NC1=O` [Example 23] (cyclo([Bip(4'-COOH)][4Pal][Phe(4-COOH)]G[Pro(cis-4-F)][Trp(βS-Me,4-F)][Aib]EW[d(αMeS)][Ala(pyrimidin-5-yl)]Q[Dab]G[dPro(4R-Bzl(4-F))])), the IC50 turned out to be 18 pM. The same measure, in the same setting: the result for `C[C@@H](c1c[nH]c2cccc(F)c12)[C@@H]1NC(=O)[C@@H]2C[C@H](F)CN2C(=O)CNC(=O)[C@H](Cc2ccc(C(=O)O)cc2)NC(=O)[C@H](Cc2ccncc2)NC(=O)[C@H](Cc2ccc(-c3ccc(C(=O)O)cc3)cc2)NC(=O)[C@H]2C[C@@H](Cc3ccc(F)cc3)CN2C(=O)CNC(=O)[C@H](CN2CCOCC2)NC(=O)[C@H](CCC(N)=O)NC(=O)[C@H](Cc2cncnc2)NC(=O)C(C)(C)NC(=O)[C@H](Cc2c[nH]c3ccccc23)NC(=O)[C@H](CCC(=O)O)NC(=O)C(C)(C)NC1=O` [Example 24] (cyclo([Bip(4'-COOH)][4Pal][Phe(4-COOH)]G[Pro(cis-4-F)][Trp(βS-Me,4-F)][Aib]EW[Aib][Ala(pyrimidin-5-yl)]Q[Ala(morpholin-4-yl)]G[dPro(4R-Bzl(4-F))])) reads 49 pM. The same measure, in the same setting: the result for `C[C@@H](c1c[nH]c2cccc(F)c12)[C@@H]1NC(=O)[C@@H]2C[C@H](F)CN2C(=O)CNC(=O)[C@H](Cc2ccc(C(=O)O)cc2)NC(=O)[C@H](Cc2ccncc2)NC(=O)[C@H](Cc2ccc(-c3ccc(C(=O)O)cc3)nc2)NC(=O)[C@H]2C[C@@H](Cc3ccc(F)cc3)CN2C(=O)CNC(=O)[C@H](CCN)NC(=O)[C@H](CCC(N)=O)NC(=O)[C@H](Cc2cncnc2)NC(=O)C(C)(C)NC(=O)[C@H](Cc2c[nH]c3ccccc23)NC(=O)[C@H](CCC(=O)O)NC(=O)C(C)(C)NC1=O` [Example 26] (cyclo([X21][4Pal][Phe(4-COOH)]G[Pro(cis-4-F)][Trp(βS-Me,4-F)][Aib]EW[Aib][Ala(pyrimidin-5-yl)]Q[Dab]G[dPro(4R-Bzl(4-F))])) reads 35 pM.

As to `C[C@@H](c1c[nH]c2cccc(F)c12)[C@@H]1NC(=O)[C@@H]2C[C@H](F)CN2C(=O)CNC(=O)[C@H](Cc2ccc(C(=O)O)cc2)NC(=O)[C@H](Cc2ccncc2)NC(=O)[C@H](Cc2ccc(-c3ccc(C(=O)O)cc3)cc2)NC(=O)[C@H]2[C@@H](Cc3ccccc3)CCN2C(=O)CNC(=O)[C@H](CO)NC(=O)[C@H](CCC(N)=O)NC(=O)[C@H](Cc2cncnc2)NC(=O)C(C)(C)NC(=O)[C@H](Cc2c[nH]c3ccccc23)NC(=O)[C@H](CCC(=O)O)NC(=O)C(C)(C)NC1=O` [Example 28] (cyclo([Bip(4'-COOH)][4Pal][Phe(4-COOH)]G[Pro(cis-4-F)][Trp(βS-Me,4-F)][Aib]EW[Aib][Ala(pyrimidin-5-yl)]QSG[X14])), the concentration for half-maximal inhibition (IC50) stood at 23 pM.
